Assay results from ChEMBL document CHEMBL5465560, “Selectivity Literature for EUbOPEN Chemogenomic Library” (2024).

How the values were obtained:
[1] = molecular target: Serine/threonine-protein kinase 33 (Homo sapiens) (UniProt Q9BYT3); assay: Selectivity interaction (Upstate Kinase Profiler service (Millipore)) EUB0000056c STK33; conditions: at 1 µM
[2] = molecular target: Calcium/calmodulin-dependent protein kinase type 1D (Homo sapiens) (UniProt Q8IU85); assay: Selectivity interaction (ActivX KiNativ screen (kinase selectivity in THP-1 cell lysates)) EUB0000639a CAMK1D; assay type: subcellular; conditions: lysate, at 0.04 µM
[3] = molecular target: Non-receptor tyrosine-protein kinase TYK2 (Homo sapiens, UniProt P29597); assay: Selectivity interaction (ActivX KiNativ screen (kinase selectivity in THP-1 cell lysates)) EUB0000639a TYK2; assay type: subcellular; conditions: lysate, at 0.01 µM
[4] = molecular target: Calcium/calmodulin-dependent protein kinase type II subunit delta (Homo sapiens) (UniProt Q13557); assay: Selectivity interaction (Kinase panel (DSF assay)) EUB0001559a CAMK2D
[5] = molecular target: Glycogen synthase kinase-3 beta (Homo sapiens, UniProt P49841); assay: Selectivity interaction (KinomeScan (DiscoverX)) EUB0000655a GSK3B; conditions: at 10 µM
[6] = molecular target: T1, Mitogen-activated protein kinase 15 (Homo sapiens) (UniProt Q8TD08); assay: Selectivity interaction (KinomeScan (DiscoverX)) EUB0000045b MAPK15
T1 sequence (whole entry): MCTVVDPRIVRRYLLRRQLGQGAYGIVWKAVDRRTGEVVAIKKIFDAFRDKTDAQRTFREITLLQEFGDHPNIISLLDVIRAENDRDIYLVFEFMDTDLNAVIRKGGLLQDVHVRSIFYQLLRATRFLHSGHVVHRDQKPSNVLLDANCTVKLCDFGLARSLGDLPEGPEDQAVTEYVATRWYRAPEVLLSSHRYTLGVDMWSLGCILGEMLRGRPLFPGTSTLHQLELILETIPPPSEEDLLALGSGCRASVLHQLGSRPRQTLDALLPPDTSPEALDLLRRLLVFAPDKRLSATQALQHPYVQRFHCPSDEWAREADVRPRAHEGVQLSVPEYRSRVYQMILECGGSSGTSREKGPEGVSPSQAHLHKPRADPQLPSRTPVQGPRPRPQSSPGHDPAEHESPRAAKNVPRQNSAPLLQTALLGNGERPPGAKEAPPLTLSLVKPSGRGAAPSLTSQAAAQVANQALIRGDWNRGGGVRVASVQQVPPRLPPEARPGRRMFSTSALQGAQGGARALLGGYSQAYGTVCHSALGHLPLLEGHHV

[7] = Selectivity interaction (Kinase panel (KiNativ target engagement assay in Jurkat cells)) EUB0001635a STLK6; conditions: Selectivity number of off-targets 0; Selectivity number of targets 233; Source Knowledge https://www.sciencedirect.com/science/article/pii/S2451945619300674?via%3Dihub; at 1 µM
[8] = molecular target: T2, Myotonin-protein kinase (Homo sapiens) (UniProt Q09013); assay: Selectivity interaction (KinomeScan (DiscoverX)) EUB0000229b DMPK; conditions: at 10 µM
T2 sequence (whole entry): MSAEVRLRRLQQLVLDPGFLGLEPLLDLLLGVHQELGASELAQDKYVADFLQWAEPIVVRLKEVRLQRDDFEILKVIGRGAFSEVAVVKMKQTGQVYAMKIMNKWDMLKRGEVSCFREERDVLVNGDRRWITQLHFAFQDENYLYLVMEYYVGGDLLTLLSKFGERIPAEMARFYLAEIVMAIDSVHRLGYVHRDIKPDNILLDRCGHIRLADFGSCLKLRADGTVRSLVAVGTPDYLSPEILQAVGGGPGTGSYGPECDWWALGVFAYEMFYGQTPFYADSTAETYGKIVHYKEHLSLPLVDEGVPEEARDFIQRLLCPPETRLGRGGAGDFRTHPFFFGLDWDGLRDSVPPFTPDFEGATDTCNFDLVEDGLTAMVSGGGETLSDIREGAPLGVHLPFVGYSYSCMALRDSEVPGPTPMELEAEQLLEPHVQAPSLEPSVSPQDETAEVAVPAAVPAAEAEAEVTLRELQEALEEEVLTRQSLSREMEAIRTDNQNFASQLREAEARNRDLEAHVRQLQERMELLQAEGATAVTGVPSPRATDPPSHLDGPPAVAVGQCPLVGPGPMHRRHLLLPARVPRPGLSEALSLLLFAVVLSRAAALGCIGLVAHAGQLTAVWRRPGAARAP

[9] = molecular target: Mitogen-activated protein kinase kinase kinase 4 (Homo sapiens) (UniProt Q9Y6R4); assay: Selectivity interaction (KinomeScan (DiscoverX)) EUB0000229b MAP3K4; conditions: at 10 µM
[10] = molecular target: Mitogen-activated protein kinase kinase kinase kinase 1 (Homo sapiens) (UniProt Q92918); assay: Selectivity interaction (KinomeScan (DiscoverX)) EUB0000092b MAP4K1; conditions: at 10 µM
[11] = molecular target: T3, Mitogen-activated protein kinase kinase kinase kinase 3 (Homo sapiens) (UniProt Q8IVH8); assay: Selectivity interaction (KinomeScan (DiscoverX)) EUB0001619a MAP4K3; conditions: at 1 µM
T3 sequence (whole entry): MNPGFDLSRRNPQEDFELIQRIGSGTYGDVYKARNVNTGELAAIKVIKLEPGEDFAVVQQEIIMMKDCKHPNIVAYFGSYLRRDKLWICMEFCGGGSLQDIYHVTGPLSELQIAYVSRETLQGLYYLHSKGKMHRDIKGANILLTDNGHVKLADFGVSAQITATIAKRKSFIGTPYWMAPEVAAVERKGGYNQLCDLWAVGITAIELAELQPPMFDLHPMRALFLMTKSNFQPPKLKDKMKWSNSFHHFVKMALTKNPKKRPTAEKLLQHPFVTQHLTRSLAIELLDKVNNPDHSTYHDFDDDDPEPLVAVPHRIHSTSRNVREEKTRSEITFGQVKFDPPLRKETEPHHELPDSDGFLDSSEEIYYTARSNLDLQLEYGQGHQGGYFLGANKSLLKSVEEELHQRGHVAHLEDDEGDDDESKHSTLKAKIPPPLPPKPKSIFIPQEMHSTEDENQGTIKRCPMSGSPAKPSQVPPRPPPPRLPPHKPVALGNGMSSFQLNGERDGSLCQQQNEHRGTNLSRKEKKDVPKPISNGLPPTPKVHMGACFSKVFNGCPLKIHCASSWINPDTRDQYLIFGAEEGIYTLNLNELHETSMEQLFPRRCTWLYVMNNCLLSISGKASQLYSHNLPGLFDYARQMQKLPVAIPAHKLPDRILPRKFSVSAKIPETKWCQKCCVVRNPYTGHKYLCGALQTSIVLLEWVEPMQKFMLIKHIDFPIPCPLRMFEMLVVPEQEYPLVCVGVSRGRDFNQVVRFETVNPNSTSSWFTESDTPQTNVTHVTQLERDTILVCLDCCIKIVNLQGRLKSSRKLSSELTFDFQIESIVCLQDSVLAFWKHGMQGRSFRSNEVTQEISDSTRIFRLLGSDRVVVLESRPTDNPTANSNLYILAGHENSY

Sequence of Mitogen-activated protein kinase kinase kinase kinase 1 (Homo sapiens) (Q92918 whole entry, looked up): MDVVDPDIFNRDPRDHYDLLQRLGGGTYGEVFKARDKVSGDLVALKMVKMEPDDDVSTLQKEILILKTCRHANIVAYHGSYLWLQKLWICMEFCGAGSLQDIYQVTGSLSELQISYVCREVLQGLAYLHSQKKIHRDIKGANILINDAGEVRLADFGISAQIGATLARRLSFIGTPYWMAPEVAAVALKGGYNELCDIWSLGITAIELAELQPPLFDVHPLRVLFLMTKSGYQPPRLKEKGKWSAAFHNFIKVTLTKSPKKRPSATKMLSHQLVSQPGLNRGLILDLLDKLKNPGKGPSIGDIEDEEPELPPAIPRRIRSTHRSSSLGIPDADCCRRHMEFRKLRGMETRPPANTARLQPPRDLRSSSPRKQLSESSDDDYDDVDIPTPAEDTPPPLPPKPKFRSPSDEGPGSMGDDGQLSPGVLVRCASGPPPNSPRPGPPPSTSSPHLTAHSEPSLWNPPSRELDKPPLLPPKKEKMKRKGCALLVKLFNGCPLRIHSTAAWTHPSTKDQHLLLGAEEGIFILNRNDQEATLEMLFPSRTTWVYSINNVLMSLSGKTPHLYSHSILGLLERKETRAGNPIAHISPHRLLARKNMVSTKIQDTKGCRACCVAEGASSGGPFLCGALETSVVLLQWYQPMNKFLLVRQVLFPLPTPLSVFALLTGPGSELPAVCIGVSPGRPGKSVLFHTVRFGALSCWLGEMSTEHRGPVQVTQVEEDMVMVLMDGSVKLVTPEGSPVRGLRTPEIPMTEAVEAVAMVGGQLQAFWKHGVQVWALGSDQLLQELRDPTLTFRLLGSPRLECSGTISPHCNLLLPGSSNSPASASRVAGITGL
Sequence of Calcium/calmodulin-dependent protein kinase type II subunit delta (Homo sapiens) (Q13557 whole entry): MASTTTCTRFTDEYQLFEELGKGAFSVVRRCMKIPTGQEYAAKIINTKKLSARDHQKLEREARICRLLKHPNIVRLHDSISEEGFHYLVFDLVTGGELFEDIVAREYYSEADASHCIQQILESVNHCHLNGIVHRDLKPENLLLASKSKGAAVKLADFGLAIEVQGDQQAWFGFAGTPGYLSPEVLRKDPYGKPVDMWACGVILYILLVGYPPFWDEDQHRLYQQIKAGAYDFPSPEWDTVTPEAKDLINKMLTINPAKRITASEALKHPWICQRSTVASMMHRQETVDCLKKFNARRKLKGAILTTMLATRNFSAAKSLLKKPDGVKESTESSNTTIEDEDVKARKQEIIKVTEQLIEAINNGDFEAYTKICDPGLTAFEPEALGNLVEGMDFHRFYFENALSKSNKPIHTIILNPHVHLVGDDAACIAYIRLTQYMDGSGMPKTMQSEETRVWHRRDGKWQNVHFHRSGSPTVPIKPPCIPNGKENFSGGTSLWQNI
Sequence of Mitogen-activated protein kinase kinase kinase 4 (Homo sapiens) (Q9Y6R4 whole entry): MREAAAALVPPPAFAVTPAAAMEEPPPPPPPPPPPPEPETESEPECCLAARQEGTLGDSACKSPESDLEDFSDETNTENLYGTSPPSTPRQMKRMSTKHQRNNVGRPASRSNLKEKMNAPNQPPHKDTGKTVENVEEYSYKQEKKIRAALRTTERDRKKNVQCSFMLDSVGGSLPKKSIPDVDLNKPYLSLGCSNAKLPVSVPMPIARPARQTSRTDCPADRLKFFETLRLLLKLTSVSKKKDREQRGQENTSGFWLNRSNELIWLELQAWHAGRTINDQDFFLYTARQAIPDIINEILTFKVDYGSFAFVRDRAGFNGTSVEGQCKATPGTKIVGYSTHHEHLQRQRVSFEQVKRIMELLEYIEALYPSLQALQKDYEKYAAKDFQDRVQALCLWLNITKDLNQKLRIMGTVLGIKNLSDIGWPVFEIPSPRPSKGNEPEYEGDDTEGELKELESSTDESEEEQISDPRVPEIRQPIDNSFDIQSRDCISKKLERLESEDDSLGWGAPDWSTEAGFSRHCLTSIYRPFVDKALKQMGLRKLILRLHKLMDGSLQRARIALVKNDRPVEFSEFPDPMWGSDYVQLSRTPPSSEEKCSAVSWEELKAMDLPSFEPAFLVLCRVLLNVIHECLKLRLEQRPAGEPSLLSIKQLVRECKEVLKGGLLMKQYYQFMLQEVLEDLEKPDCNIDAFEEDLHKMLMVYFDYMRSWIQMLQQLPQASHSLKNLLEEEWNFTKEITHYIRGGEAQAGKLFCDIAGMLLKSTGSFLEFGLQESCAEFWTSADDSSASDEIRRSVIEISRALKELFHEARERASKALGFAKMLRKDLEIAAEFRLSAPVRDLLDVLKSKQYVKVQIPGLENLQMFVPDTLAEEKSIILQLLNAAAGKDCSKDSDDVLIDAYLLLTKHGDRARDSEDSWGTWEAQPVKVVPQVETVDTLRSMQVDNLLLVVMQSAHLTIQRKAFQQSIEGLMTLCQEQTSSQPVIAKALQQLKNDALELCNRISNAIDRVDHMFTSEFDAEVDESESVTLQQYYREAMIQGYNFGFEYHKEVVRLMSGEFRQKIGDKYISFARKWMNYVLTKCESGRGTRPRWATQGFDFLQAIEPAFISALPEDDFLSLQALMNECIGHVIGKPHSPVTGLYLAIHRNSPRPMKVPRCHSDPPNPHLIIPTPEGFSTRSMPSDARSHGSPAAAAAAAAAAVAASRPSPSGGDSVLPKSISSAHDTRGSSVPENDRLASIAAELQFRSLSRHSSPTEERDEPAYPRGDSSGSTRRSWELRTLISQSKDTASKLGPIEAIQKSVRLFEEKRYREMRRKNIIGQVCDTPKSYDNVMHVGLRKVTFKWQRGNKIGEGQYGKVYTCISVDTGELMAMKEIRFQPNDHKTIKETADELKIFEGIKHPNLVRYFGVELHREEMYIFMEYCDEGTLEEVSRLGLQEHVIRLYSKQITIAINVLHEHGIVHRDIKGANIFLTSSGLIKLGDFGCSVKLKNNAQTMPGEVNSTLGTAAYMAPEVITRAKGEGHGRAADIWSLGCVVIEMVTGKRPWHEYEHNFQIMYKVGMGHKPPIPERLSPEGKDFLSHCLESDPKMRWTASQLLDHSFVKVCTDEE
Sequence of Serine/threonine-protein kinase 33 (Homo sapiens) (Q9BYT3 whole entry, looked up): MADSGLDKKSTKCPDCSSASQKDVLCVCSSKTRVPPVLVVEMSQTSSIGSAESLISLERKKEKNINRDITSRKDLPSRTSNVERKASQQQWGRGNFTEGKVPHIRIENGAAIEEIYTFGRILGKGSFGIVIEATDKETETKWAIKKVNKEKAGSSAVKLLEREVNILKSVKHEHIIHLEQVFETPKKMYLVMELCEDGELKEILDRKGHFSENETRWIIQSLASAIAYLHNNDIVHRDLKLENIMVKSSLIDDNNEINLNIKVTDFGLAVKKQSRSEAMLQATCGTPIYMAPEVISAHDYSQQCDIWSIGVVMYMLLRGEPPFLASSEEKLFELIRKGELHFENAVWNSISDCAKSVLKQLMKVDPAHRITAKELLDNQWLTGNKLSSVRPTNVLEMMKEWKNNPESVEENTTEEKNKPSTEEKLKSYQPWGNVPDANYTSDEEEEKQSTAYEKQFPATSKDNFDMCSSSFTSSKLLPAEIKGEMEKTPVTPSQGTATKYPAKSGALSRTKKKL
Sequence of Calcium/calmodulin-dependent protein kinase type 1D (Homo sapiens) (Q8IU85 whole entry, looked up): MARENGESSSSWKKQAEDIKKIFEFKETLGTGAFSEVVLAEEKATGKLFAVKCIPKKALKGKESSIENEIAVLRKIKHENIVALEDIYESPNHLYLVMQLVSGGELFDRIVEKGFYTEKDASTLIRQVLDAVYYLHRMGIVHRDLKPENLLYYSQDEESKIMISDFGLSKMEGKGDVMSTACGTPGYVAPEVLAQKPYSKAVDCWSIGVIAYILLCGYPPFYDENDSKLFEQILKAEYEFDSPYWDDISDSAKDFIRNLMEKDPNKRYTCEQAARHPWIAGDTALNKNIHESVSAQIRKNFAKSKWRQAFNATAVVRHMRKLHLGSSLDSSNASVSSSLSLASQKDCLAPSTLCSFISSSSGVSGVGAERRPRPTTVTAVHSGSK
Sequence of Non-receptor tyrosine-protein kinase TYK2 (P29597 whole entry): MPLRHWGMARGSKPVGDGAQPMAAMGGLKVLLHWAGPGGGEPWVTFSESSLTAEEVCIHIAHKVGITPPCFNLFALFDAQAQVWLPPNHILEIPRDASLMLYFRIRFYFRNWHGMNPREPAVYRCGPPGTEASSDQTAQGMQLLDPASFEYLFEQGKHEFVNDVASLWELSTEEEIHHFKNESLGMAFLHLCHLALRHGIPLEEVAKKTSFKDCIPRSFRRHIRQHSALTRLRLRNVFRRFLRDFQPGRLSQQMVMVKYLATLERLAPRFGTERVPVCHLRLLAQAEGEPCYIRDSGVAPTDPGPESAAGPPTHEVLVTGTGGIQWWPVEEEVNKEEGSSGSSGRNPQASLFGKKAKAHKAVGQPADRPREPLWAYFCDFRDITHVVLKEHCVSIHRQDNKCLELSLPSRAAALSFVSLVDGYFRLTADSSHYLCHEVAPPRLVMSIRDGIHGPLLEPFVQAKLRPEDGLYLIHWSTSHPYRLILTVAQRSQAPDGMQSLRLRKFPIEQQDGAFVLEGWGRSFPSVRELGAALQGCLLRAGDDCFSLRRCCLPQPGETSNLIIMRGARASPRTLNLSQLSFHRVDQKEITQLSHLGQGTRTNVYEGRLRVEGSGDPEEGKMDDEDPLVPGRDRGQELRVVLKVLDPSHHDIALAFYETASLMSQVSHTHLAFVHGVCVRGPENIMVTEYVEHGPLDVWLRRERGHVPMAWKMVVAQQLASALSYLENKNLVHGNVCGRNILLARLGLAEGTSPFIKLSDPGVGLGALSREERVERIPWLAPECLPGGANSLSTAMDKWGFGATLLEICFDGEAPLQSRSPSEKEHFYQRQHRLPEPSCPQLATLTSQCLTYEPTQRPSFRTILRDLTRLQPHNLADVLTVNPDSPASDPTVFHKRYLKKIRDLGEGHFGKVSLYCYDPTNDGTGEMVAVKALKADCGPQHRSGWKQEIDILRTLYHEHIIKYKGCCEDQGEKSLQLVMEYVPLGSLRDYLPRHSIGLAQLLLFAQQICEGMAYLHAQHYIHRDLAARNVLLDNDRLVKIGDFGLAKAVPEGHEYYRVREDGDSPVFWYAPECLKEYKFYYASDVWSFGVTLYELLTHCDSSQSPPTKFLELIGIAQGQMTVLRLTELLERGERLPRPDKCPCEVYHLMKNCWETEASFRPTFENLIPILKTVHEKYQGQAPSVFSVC

For `Cc1ccc(-c2ccc3c(ccc4sc5c(c43)NC[C@@H](C)NC5=O)n2)cn1`, the % of inhibition [1] was 39%.

With `CC[C@@H]1[C@H](F)C(=O)N[C@@H]1COc1nccc2cc(C(N)=O)c(OC)cc12` [ZIMLOVISERTIB] the % of inhibition [2] was -15.2% and the % of inhibition [3] was 18.9%.

In the case of `CN(C(=O)c1cnn2cccnc12)c1cc2c(cc1N1CCOCC1)C(=O)N(C[C@@H](F)C(C)(C)O)C2`, the dTM [4] is reported as 0 K.

With `CN(C)CCOc1ccc(-c2nc(-c3ccncc3)c(-c3ccc4c(c3)CC/C4=N\O)[nH]2)cc1` the % of control [5] was 81%.

For `C=CC(=O)Nc1cc(-n2c(=O)ccc3cnc4ccc(-c5ccc(NS(C)(=O)=O)cc5)cc4c32)ccc1C`, the % of control ([6]; at 1 µM) was 100% and the % of control ([6]; at 10 µM) was 100%.

For `C=CC(=O)Nc1ccc(C(=O)Nc2[nH]nc3c2CN(C(=O)N[C@H](CN(C)C)c2ccccc2)C3(C)C)cc1`, the “% of engagement” value [7] was -0.5%.

For `COc1cc(N(C)c2ccnc3ccc(C(F)(F)F)cc23)cc(OC)c1OC`, the % binding [8] was 87% and the % binding [9] was 100%.

For `CCC(=O)N1CCN(c2ccc(-n3c(=O)ccc4cnc5ccc(-c6cnc7ccccc7c6)cc5c43)cc2C(F)(F)F)CC1`, the % of control [10] was 30%.

For `N#Cc1cccc(-c2c[nH]c3ncnc(N4CCOCC4)c23)c1`, the % of control [11] was 4.8%.
